What follows are compounds tested against T1, GST-tagged truncated human mutant G2019S LRRK2 (Homo sapiens, UniProt Q5S007, G2019S) (assay: LRRK2 G2019S Km ATP LanthaScreen assay). Settings: 134 μM ATP (Km ATP), LRRKtide substrate, mean of several tests.
T1 construct: GST-tagged truncated human mutant G2019S LRRK2; purchased Life Technologies Corporation (Carlsbad, CA)
Type: biochemical
Method in brief: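 GST-tagged truncated human LRRK2 G2019S (1.25 nM enzyme solution) was preincubated 15 min with compound, then reacted 90 min at ambient temperature with fluorescein-LRRKtide (400 nM solution) and 134 μM ATP (Km) in Tris pH 8.5. EDTA stop; Tb anti-phospho-LRRKtide TR-FRET (520/495 ratio). IC50 from 4-parameter fits, mean of several runs.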

T1 sequence (Q5S007 970-2527 G2019S limits assumed): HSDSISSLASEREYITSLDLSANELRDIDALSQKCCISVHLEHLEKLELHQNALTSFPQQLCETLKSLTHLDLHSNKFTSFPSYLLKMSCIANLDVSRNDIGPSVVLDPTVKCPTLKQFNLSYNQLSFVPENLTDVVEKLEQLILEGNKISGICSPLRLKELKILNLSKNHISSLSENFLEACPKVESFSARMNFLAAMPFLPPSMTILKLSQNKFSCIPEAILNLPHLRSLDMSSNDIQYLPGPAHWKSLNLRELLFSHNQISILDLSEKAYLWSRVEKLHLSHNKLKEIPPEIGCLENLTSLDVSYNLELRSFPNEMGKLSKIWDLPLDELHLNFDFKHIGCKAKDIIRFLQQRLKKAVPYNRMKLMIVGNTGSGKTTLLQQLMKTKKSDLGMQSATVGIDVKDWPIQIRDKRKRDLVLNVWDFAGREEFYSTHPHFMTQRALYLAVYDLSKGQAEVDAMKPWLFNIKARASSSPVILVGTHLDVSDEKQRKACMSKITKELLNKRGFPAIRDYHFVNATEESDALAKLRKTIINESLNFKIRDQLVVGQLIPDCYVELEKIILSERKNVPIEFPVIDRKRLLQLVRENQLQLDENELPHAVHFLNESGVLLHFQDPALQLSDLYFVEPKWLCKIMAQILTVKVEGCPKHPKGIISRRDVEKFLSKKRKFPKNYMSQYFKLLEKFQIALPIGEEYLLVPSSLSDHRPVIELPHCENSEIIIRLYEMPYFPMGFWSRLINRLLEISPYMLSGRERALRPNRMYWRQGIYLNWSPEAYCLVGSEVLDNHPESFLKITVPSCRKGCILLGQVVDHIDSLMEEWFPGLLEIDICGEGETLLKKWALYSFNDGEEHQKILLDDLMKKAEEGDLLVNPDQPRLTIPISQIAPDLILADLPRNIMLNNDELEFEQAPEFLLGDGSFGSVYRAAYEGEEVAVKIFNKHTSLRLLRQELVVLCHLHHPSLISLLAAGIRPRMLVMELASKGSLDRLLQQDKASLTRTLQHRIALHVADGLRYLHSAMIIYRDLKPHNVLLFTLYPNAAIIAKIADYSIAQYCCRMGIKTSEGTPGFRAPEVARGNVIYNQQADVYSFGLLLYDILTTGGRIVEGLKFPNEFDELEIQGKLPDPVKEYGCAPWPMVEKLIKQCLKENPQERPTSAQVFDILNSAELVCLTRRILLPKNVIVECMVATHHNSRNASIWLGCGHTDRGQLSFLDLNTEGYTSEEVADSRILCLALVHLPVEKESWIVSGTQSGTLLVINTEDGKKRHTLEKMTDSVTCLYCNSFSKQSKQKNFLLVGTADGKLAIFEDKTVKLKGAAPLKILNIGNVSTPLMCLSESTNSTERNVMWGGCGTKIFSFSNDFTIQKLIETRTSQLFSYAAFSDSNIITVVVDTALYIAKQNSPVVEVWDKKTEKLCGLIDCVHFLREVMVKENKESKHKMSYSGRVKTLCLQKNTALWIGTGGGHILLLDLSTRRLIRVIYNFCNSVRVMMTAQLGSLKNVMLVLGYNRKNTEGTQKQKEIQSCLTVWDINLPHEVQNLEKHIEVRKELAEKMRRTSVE

Compound | LRRK2 pIC50
(1R,2R or 1S,2S)-N-[6-[4-((3R,4R or 3S,4S)-4-fluoro-3-methyl-tetrahydrofuran-3-yl)piperazin-1-yl]-7-methyl-3-isoquinolyl]-2-(1-methylpyrazol-3-yl)cyclopropanecarboxamide [Ex-10.59] | 10.09

Same assay, conditions: 134 μM ATP (Km ATP), LRRKtide substrate, mean of several tests, read-out: LRRK2 pIC50 (converted)

Compound | IC50 [nM]
CC1(c2ccccn2)CC1C(=O)Nc1cc2cc(N3CCN(C4(C)COCC4O)CC3)c(Cl)cc2cn1 (single isomer, unassigned) [Ex-11.2, (1R,2R)(3R,4R)— or (1R,2S)(3R,4R)— or (1S,2R)(3R,4R)— or (1S,2S)(3R,4R)— or (1R,2R)(3S,4S)— or (1R,2S)(3S,4S)— or (1S,2R)(3S,4S)— or (1S,2S)(3S,4S)-N-(7-chloro-6-(4-(4-hydroxy-3-methyltetrahydrofuran-3-yl)piperazin-1-yl)isoquinolin-3-yl)-2-methyl-2-(pyridin-2-yl)cyclopropane-1-carboxamide] | 45.7
CC1(C)CC2(CCO1)CC2C(=O)Nc1cc2cc(N3CCN(C4(C)COCC4O)CC3)c(Cl)cc2cn1 (single isomer, unassigned) [Ex-7.4] | 0.776
CC(C)n1nccc1C1CC1C(=O)Nc1cc2cc(N3CCN(C4(C)COCC4O)CC3)c(Cl)cc2cn1 (single isomer, unassigned) [Ex-10.21, (1R,2R or 1S,2S)-N-[7-chloro-6-[4-((3R,4R or 3S,4S)-4-hydroxy-3-methyl-tetrahydrofuran-3-yl)piperazin-1-yl]-3-isoquinolyl]-2-(2-isopropylpyrazol-3-yl)cyclopropanecarboxamide] | 44.7
CC1(N2CCN(c3cc4cc(NC(=O)C5CC56CCOCC6)ncc4cc3Cl)CC2)COCC1O (single isomer, unassigned) [Ex-2.1, (R or S)-N-(7-chloro-6-(4-((3R,4R or 3S,4S)-4-hydroxy-3-methyltetrahydrofuran-3-yl)piperazin-1-yl)isoquinolin-3-yl)-6-oxaspiro[2.5]octane-1-carboxamide] | 0.389
CC1(C)CC(C(=O)Nc2cc3cc(N4CCN(C5(C)COCC5O)CC4)c(Cl)cc3cn2)CO1 (single isomer, unassigned) [Ex-1.21, (R or S)-N-(7-chloro-6-(4-((3R,4R or 3S,4S)-4-hydroxy-3-methyltetrahydrofuran-3-yl)piperazin-1-yl)isoquinolin-3-yl)-5,5-dimethyltetrahydrofuran-3-carboxamide] | 1.74
CC1(N2CCN(c3cc4cc(NC(=O)C56CC(C5)C6)ncc4cc3Cl)CC2)COCC1O (single isomer, unassigned) [Ex-2.19, N-(7-chloro-6-(4-((3R,4R or 3S,4S)-4-hydroxy-3-methyltetrahydrofuran-3-yl)piperazin-1-yl)isoquinolin-3-yl)bicyclo[1.1.1]pentane-1-carboxamide] | 2.88
N#CC1(F)CCN(c2cc3cc(NC(=O)C4CC4c4cncnc4)ncc3cc2Cl)CC1 (single isomer, unassigned) [Ex-5.19] | 117
CC1(N2CCN(c3cc4cc(NC(=O)C5CC56CCOCC6)ncc4cc3Cl)CC2)CCOC1 (single isomer, unassigned) [Ex-5.12] | 126
C[C@H]1CN(c2cc3cc(NC(=O)C4CC45CCOCC5)ncc3cc2Cl)CCN1C1(C)COCC1O (single isomer, unassigned) [Ex-2.20, (R or S)-N-(7-chloro-6-((S or R)-4-((3R,4R, or 3S,4S)-4-hydroxy-3-methyltetrahydrofuran-3-yl)-3-methylpiperazin-1-yl)isoquinolin-3-yl)-6-oxaspiro[2.5]octane-1-carboxamide] | 0.178
CC1(N2CCN(c3cc4cc(NC(=O)C5CC56CCOCC6)ncc4cc3Cl)CC2)CCOC1 (single isomer, unassigned) [Ex-5.11] | 2.45
Cc1cc2cnc(NC(=O)C3CCOC(C)(C)C3)cc2cc1N1CCN(C2(C)CCOC2)CC1 (single isomer, unassigned) [Ex-10.44, (4R or 4S)-2,2-dimethyl-N-[7-methyl-6-[4-((R or S)-3-methyltetrahydrofuran-3-yl)piperazin-1-yl]-3-isoquinolyl]tetrahydropyran-4-carboxamide] | 209
CC1(N2CCN(c3cc4cc(NC(=O)C5CC56CCOCC6)ncc4cc3Cl)CC2)COCC1C#N (racemic) [Ex-18.1] | 0.912
CC1(N2CCN(c3cc4cc(NC(=O)C5CC6(CC6)C5)ncc4cc3Cl)CC2)COCC1O (single isomer, unassigned) [Ex-2.17, N-(7-chloro-6-(4-((3R,4R or 3S,4S)-4-hydroxy-3-methyltetrahydrofuran-3-yl)piperazin-1-yl)isoquinolin-3-yl)spiro[2.3]hexane-5-carboxamide] | 0.955
Cc1cc2cnc(NC(=O)C3CC34CCOCC4)cc2cc1N1CCN(C2(C)COCC2O)C[C@@H]1C (single isomer, unassigned) [Ex-15.2, (R or S)-N-(6-((2R or 2S)-4-(4-(3R,4R or 3S,4S)-hydroxy-3-methyltetrahydrofuran-3-yl)-2-methylpiperazin-1-yl)-7-methylisoquinolin-3-yl)-6-oxaspiro[2.5]octane-1-carboxamide] | 0.0813
CC1(N2CCN(c3cc4cc(NC(=O)C5CC56CC6)ncc4cc3Cl)CC2)COCC1F (single isomer, unassigned) [Ex-10.80, (R or S)-N-[7-chloro-6-[4-((3R,4R or 3S,4S)-4-fluoro-3-methyl-tetrahydrofuran-3-yl)piperazin-1-yl]-3-isoquinolyl]spiro[2.2]pentane-2-carboxamide] | 0.123
CCC1C(C(=O)Nc2cc3cc(N4CCN(C5(C)COCC5O)CC4)c(Cl)cc3cn2)C1c1ccn(C)n1 (single isomer, unassigned) [Ex-10.65, (1R,2R,3R, or 1R,2S,3R, or 1S,2R,3S, or 1S,2S,3S)-N-[7-chloro-6-[4-( (3R,4R or 3S,4S)-4-hydroxy-3-methyl-tetrahydrofuran-3-yl)piperazin-1-yl]-3-isoquinolyl]-2-ethyl-3-(1-methylpyrazol-3-yl)cyclopropanecarboxamide] | 0.0813
CC1C(C(=O)Nc2cc3cc(N4CCN(C5(C)CCOC5)CC4)c(Cl)cc3cn2)C1c1cnn(C)c1 (single isomer, unassigned) [Ex-9.9] | 0.417
CC1(C2CCOC2)CC1C(=O)Nc1cc2cc(N3CCN(C4(C)COCC4O)CC3)c(Cl)cc2cn1 (single isomer, unassigned) [Ex-10.81, (1R,2R or 1S,2S, or 1R,2S, or 1S,2R)-N-[7-chloro-6-[4-((3R,4R or 3S,4S)-4-hydroxy-3-methyl-tetrahydrofuran-3-yl)piperazin-1-yl]-3-isoquinolyl]-2-methyl-2-tetrahydrofuran-3-yl-cyclopropanecarboxamide] | 0.0813
CC1(N2CCN(c3cc4cc(NC(=O)C5CCC5C#N)ncc4cc3Cl)CC2)COCC1O (single isomer, unassigned) [Ex-10.39, (1R,2R of 1S,2S)-N-[7-chloro-6-[4-((3R,4R or 3S,4S)-4-hydroxy-3-methyl-tetrahydrofuran-3-yl)piperazin-1-yl]-3-isoquinolyl]-2-cyano-cyclobutanecarboxamide] | 0.0813
CC1(C)C(C(=O)Nc2cc3cc(N4CCN(C5(C)COCC5O)CC4)c(Cl)cc3cn2)C1C1CCCCO1 (single isomer, unassigned) [Ex-10.91, (1R,2R,3R, 1R,2S,3R, or 1S,2R,3S, or 1S,2S,3S)-N-[7-chloro-6-[4-((3R,4R or 3S,4S)-4-hydroxy-3-methyl-tetrahydrofuran-3-yl)piperazin-1-yl]-3-isoquinolyl]-2,2-dimethyl-3-tetrahydropyran-2-yl-cyclopropanecarboxamide] | 0.0813
CC1(N2CCN(c3cc4cc(NC(=O)C5C6COCC65)ncc4cc3Cl)CC2)COCC1O (single isomer, unassigned) [Ex-1.9, (1R or S)-N-(7-chloro-6-(4-((3R,4R or 3S,4S)-4-hydroxy-3-methyltetrahydrofuran-3-yl)piperazin-1-yl)isoquinolin-3-yl)-3-oxabicyclo[3.1.0]hexane-6-carboxamide] | 0.794
CC1(O)CCN(c2cc3cc(NC(=O)C4CC4)ncc3cc2Cl)CC1 [Ex-4.2] | 10.5
C[C@H]1CN(c2cc3cc(NC(=O)C4CC45CCOCC5)ncc3cc2Cl)CCN1C1COCC1O (single isomer, unassigned) [Ex-2.4, (R or S)-N-{7-chloro-6-[(3S or 3R)-4-(3R,4R or 3S,4S)-4-hydroxyoxolan-3-yl)-3-methylpiperazin-1-yl]isoquinolin-3-yl}-6-oxaspiro[2.5]octane-1-carboxamide] | 0.38
CC1(C2CCOC2)CC1C(=O)Nc1cc2cc(N3CCN(C4(C)COCC4O)CC3)c(Cl)cc2cn1 (single isomer, unassigned) [Ex-10.83, (1R,2R or 1S,2S, or 1R,2S, or 1S,2R)-N-[7-chloro-6-[4-((3R,4R or 3S,4S)-4-hydroxy-3-methyl-tetrahydrofuran-3-yl)piperazin-1-yl]-3-isoquinolyl]-2-methyl-2-tetrahydrofuran-3-yl-cyclopropanecarboxamide] | 0.525
O=C(Nc1cc2cc(N3C(=O)C4CCC3C4)ccc2cn1)C1CC1 (single isomer, unassigned) [Ex-5.1] | 9.55
C[C@]1(O)COC[C@@]1(C)N1CCN(c2cc3cc(NC(=O)[C@@H]4CC45CCOCC5)ncc3cc2Cl)CC1 (single isomer, unassigned) [Ex-17.1, (R) or (S)-N-(7-chloro-6-((3R,4R) or (3S,4S)-4-(4-hydroxy-3,4-dimethyltetrahydrofuran-3-yl)piperazin-1-yl)isoquinolin-3-yl)-6-oxaspiro[2.5]octane-1-carboxamide] | 0.0813
